ChEMBL document CHEMBL1201862, “PubChem BioAssay data set” (2004)
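Tested at 5 concentrations; 48 h exposure; 96-well plates; endpoints linearly interpolated, else capped at highest concentration. The concentration for 50% growth inhibition is given as GI50.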 Activity calls are given as the source filed them. Rule as the data show it: active = GI50 up to about 1.1 µM and inactive = higher.

Key:
Experiment in all cases: NCI tumour cell line growth inhibition, 48 h
[1] = tested on: A498
[2] = tested on: A549
[3] = tested on: ACHN
[4] = tested on: BT-549
[5] = tested on: CAKI-1
[6] = tested on: CCRF-CEM
[7] = tested on: EKVX
[8] = tested on: HCC 2998
[9] = tested on: HCT-15
[10] = tested on: HL-60
[11] = tested on: HOP-62
[12] = tested on: HOP-92
[13] = tested on: K562
[14] = tested on: KM12
[15] = tested on: M14
[16] = tested on: MCF7
[17] = tested on: MDA-MB-231
[18] = tested on: MDA-MB-435
[19] = tested on: MDA-N
[20] = tested on: MOLT-4
[21] = tested on: NCI-H226
[22] = tested on: NCI-H23
[23] = tested on: NCI-H460
[24] = tested on: NCI/ADR-RES
[25] = tested on: OVCAR-3
[26] = tested on: OVCAR-4
[27] = tested on: OVCAR-5
[28] = tested on: OVCAR-8
[29] = tested on: PC-3
[30] = tested on: RPMI-8226
[31] = tested on: RXF 393
[32] = tested on: SF-268
[33] = tested on: SF-295
[34] = tested on: SF-539
[35] = tested on: SK-MEL-28
[36] = tested on: SK-MEL-2
[37] = tested on: SK-OV-3
[38] = tested on: SN12C
[39] = tested on: SNB-19
[40] = tested on: SNB-75
[41] = tested on: SR
[42] = tested on: TK-10
[43] = tested on: U-251
[44] = tested on: UACC-257
[45] = tested on: UACC-62
[46] = tested on: UO-31

Compound: Cc1ccc(-c2cs/c(=N\c3c(C)n(C)n(-c4ccccc4)c3=O)n2CCO)cc1
- GI50 [1]: 70 µM (inactive)
- GI50 [2]: > 100 µM (inactive)
- GI50 [3]: 46.5 µM (inactive)
- GI50 [4]: 74.3 µM (inactive)
- GI50 [5]: > 100 µM (inactive)
- GI50 [6]: > 100 µM (inactive)
- GI50 [7]: 84.7 µM (inactive)
- GI50 [8]: > 100 µM (inactive)
- GI50 [9]: > 100 µM
- GI50 [10]: > 100 µM (inactive)
- GI50 [11]: > 100 µM (inactive)
- GI50 [12]: > 100 µM (inactive)
- GI50 [13]: 97.3 µM (inactive)
- GI50 [14]: > 100 µM (inactive)
- GI50 [15]: > 100 µM (inactive)
- GI50 [16]: 72.9 µM (inactive)
- GI50 [17]: > 100 µM (inactive)
- GI50 [18]: > 100 µM (inactive)
- GI50 [19]: > 100 µM (inactive)
- GI50 [20]: 87.5 µM (inactive)
- GI50 [21]: > 100 µM (inactive)
- GI50 [22]: 50.8 µM (inactive)
- GI50 [23]: > 100 µM (inactive)
- GI50 [24]: 65.6 µM (inactive)
- GI50 [25]: > 100 µM (inactive)
- GI50 [26]: > 100 µM (inactive)
- GI50 [27]: > 100 µM (inactive)
- GI50 [28]: > 100 µM (inactive)
- GI50 [29]: > 100 µM (inactive)
- GI50 [30]: > 100 µM (inactive)
- GI50 [31]: > 100 µM (inactive)
- GI50 [32]: > 100 µM (inactive)
- GI50 [33]: > 100 µM (inactive)
- GI50 [34]: > 100 µM (inactive)
- GI50 [35]: > 100 µM (inactive)
- GI50 [36]: > 100 µM (inactive)
- GI50 [37]: > 100 µM (inactive)
- GI50 [38]: > 100 µM (inactive)
- GI50 [39]: > 100 µM (inactive)
- GI50 [40]: > 100 µM (inactive)
- GI50 [41]: > 100 µM (inactive)
- GI50 [42]: > 100 µM (inactive)
- GI50 [43]: > 100 µM (inactive)
- GI50 [44]: 53.8 µM (inactive)
- GI50 [45]: > 100 µM (inactive)
- GI50 [46]: > 100 µM (inactive)
